In BindingDB's records for doi:10.1021/jm970104t (Boehringer Ingelheim, 1998):
Where a SMILES comes first, the peptide text is derived from it. [ ]: non-standard residue; d: D form. The star is where a group is joined. ξ: configuration not given here. Tle = CC(C)(C)[C@H](N)C(=O)O; ξNva = CCCC(N)C(=O)O; ξA = CC(N)C(=O)O; CF3 = FC(F)(F)*

Target: HCMV protease (Human cytomegalovirus)
Test: Micro molar potency to inhibit human cytomegalovirus (HCMV) protease

Row | SMILES | IC50 [µM]
1 | CC(NC(=O)[C@H](CC(=O)N(C)C)NC(=O)[C@@H](NC(=O)CC(C)(C)C)C(C)(C)C)C(=O)C(=O)N(C)C (stereo partly drawn) [(S)-2-[(S)-2-(3,3-Dimethyl-butyrylamino)-3,3-dimethyl-butyrylamino]-N*1*-(2-dimethylcarbamoyl-1-methyl-2-oxo-ethyl)-N*4*,N*4*-dimethyl-succinamide] | > 300
2 | CC(NC(=O)[C@H](CC(=O)N(C)C)NC(=O)[C@@H](O)C(C)(C)C)C(=O)C(F)(F)F (stereo partly drawn) [(S)-2-((S)-2-Hydroxy-3,3-dimethyl-butyrylamino)-N*4*,N*4*-dimethyl-N*1*-(3,3,3-trifluoro-1-methyl-2-oxo-propyl)-succinamide] | 20
3 | CC(NC(=O)[C@H](CC(=O)N(C)C)NC(=O)[C@@H](N)C(C)(C)C)C(=O)C(F)(F)F (stereo partly drawn) [(S)-2-((S)-2-Amino-3,3-dimethyl-butyrylamino)-N*4*,N*4*-dimethyl-N*1*-(3,3,3-trifluoro-1-methyl-2-oxo-propyl)-succinamide] (H-[Tle]-Asp(NMe2)-[ξA]-CF3) | 12

Now from value to compound:

Row | IC50 [µM] | SMILES
4 | > 300 | CCCC(NC(=O)[C@H](CC(N)=O)NC(=O)[C@@H](NC(=O)[C@@H](NC(C)=O)C(C)C)C(C)C)C(=O)C(F)(F)F (stereo partly drawn) [(S)-2-[(S)-2-((S)-2-Acetylamino-3-methyl-butyrylamino)-3-methyl-butyrylamino]-N*1*-[1-(2,2,2-trifluoro-acetyl)-butyl]-succinamide] (Ac-VVN[ξNva]-CF3)
5 | 33 | CN(C)C(=O)C[C@H](NC(=O)[C@@H](NC(=O)CC(C)(C)C)C(C)(C)C)C(=O)N[C@H]1CN(OCc2ccccc2)C1=O [(S)-N*1*-((S)-1-Benzyloxy-2-oxo-azetidin-3-yl)-2-[(S)-2-(3,3-dimethyl-butyrylamino)-3,3-dimethyl-butyrylamino]-N*4*,N*4*-dimethyl-succinamide]
6 | 0.6 | Cc1ccc2nc(C(=O)C(C)NC(=O)[C@H](CC(=O)N(C)C)NC(=O)[C@@H](NC(=O)CC(C)(C)C)C(C)(C)C)oc2c1 (stereo partly drawn) [(S)-2-[(S)-2-(3,3-Dimethyl-butyrylamino)-3,3-dimethyl-butyrylamino]-N*4*,N*4*-dimethyl-N*1*-[1-methyl-2-(6-methyl-benzooxazol-2-yl)-2-oxo-ethyl]-succinamide]
